Results reported in PubChem BioAssay AID2060627 (Molecular Pharmacology Branch, DTP, NCI, 2025).
Where “and” joins values, the source holds several entries; their conditions need not be identical. Identical values can stand only once.

Tested on: 156681-154-R-J1-PDC complex spheroid viability
Assay: Anticancer human tumor 156681-154-R-J1-PDC patient-derived melanoma cell line growth inhibition [CLK]
Settings: for viability, T/C: stronger effect = lower value
How it was run: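 Multi-cell-type spheroids combined patient-derived tumor cells with HUVEC endothelial cells and human mesenchymal stem cells. Paired agents were dosed in half-log steps down from about clinical Cmax, or from 10 microM where Cmax was unknown.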

[1] = curve of first compound, second compound 0.0316 µM
[2] = curve of first compound, second compound 0.1 µM
[3] = curve of first compound, second compound 0.316 µM
[4] = curve of first compound, second compound 1 µM
[5] = curve of first compound, second compound 3.16 µM
[6] = curve of first compound, second compound 10 µM
[7] = second compound 0.0316 µM, first compound 0.0316 µM
[8] = second compound 0.0316 µM, first compound 0.1 µM
[9] = second compound 0.0316 µM, first compound 0.316 µM
[10] = second compound 0.0316 µM, first compound 1 µM
[11] = second compound 0.0316 µM, first compound 3.16 µM
[12] = second compound 0.0316 µM, first compound 10 µM
[13] = second compound 0.1 µM, first compound 0.0316 µM
[14] = second compound 0.1 µM, first compound 0.1 µM
[15] = second compound 0.1 µM, first compound 0.316 µM
[16] = second compound 0.1 µM, first compound 1 µM
[17] = second compound 0.1 µM, first compound 3.16 µM
[18] = second compound 0.1 µM, first compound 10 µM
[19] = second compound 0.316 µM, first compound 0.0316 µM
[20] = second compound 0.316 µM, first compound 0.1 µM
[21] = second compound 0.316 µM, first compound 0.316 µM
[22] = second compound 0.316 µM, first compound 1 µM
[23] = second compound 0.316 µM, first compound 3.16 µM
[24] = second compound 0.316 µM, first compound 10 µM
[25] = second compound 1 µM, first compound 0.0316 µM
[26] = second compound 1 µM, first compound 0.1 µM
[27] = second compound 1 µM, first compound 0.316 µM
[28] = second compound 1 µM, first compound 1 µM
[29] = second compound 1 µM, first compound 3.16 µM
[30] = second compound 1 µM, first compound 10 µM
[31] = second compound 3.16 µM, first compound 0.0316 µM
[32] = second compound 3.16 µM, first compound 0.1 µM
[33] = second compound 3.16 µM, first compound 0.316 µM
[34] = second compound 3.16 µM, first compound 1 µM
[35] = second compound 3.16 µM, first compound 3.16 µM
[36] = second compound 3.16 µM, first compound 10 µM
[37] = second compound 10 µM, first compound 0.0316 µM
[38] = second compound 10 µM, first compound 0.1 µM
[39] = second compound 10 µM, first compound 0.316 µM
[40] = second compound 10 µM, first compound 1 µM
[41] = second compound 10 µM, first compound 3.16 µM
[42] = second compound 10 µM, first compound 10 µM
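Further: spheroids exposed to the agents for seven days.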
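Wherever viability, T/C is given: 100% = DMSO vehicle control viability.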

`C#Cc1c(F)ccc2cc(O)cc(-c3ncc4c(N5CC6CCC(C5)N6)nc(OCC56CCCN5CC(F)C6)nc4c3F)c12` (stereo unspecified) was tested, and the viability, T/C (compound 0.0316 µM) was 110% and 91.8%, the viability, T/C (compound 0.1 µM) was 86.9% and 94% and the viability, T/C (compound 0.316 µM) was 79.3% and 89.4%. The viability, T/C (compound 1 µM) was 89.2% and 83.5%, the viability, T/C (compound 3.16 µM) was 109% and 96.9% and the viability, T/C (compound 10 µM) was 99.2% and 101%. The IC50 (curve of compound) was > 10000 nM.
For `COC1C=CCC(C)C(C)S(=O)(=O)NC(=O)c2ccc3c(c2)N(CC2CCC21)CC1(CCCc2cc(Cl)ccc21)CO3` (stereo unspecified) + CN1CCN(c2cc(C(=O)Nc3cc4cc(-c5cnn(C)c5)ccc4cn3)ccn2)CC1, the IC50 [1] was 1600 nM, the IC50 [2] was 1170 nM and the IC50 [3] was < 31.6 nM. For the same molecule, the IC50 [4] was < 31.6 nM, the IC50 [5] was < 31.6 nM and the IC50 [6] was < 31.6 nM. It also gave a viability, T/C [7] of 111%, a viability, T/C [8] of 83.4% and a viability, T/C [9] of 86.8%. For the same molecule, the viability, T/C [10] was 75.4%, the viability, T/C [11] was 13.8% and the viability, T/C [12] was 1.82%. The viability, T/C [13] was 90.1%, the viability, T/C [14] was 97.8% and the viability, T/C [15] was 81.2%. For the same molecule, the viability, T/C [16] was 58%, the viability, T/C [17] was 11.7% and the viability, T/C [18] was 2.71%. The viability, T/C [19] was 27.3%, the viability, T/C [20] was 17.2% and the viability, T/C [21] was 16.7%. The viability, T/C [22] was 10.2%, the viability, T/C [23] was 4.46% and the viability, T/C [24] was 1.8%. The viability, T/C [25] was 0.2%, the viability, T/C [26] was 0.34% and the viability, T/C [27] was 0.18%. For the same molecule, the viability, T/C [28] was 0.14%, the viability, T/C [29] was 0.12% and the viability, T/C [30] was 2.25%. For the same molecule, the viability, T/C [31] was 0.14%, the viability, T/C [32] was 2.92% and the viability, T/C [33] was 1.77%. For the same molecule, the viability, T/C [34] was 0.13%, the viability, T/C [35] was 2.33% and the viability, T/C [36] was 1.15%. It also gave a viability, T/C [37] of 0.16%, a viability, T/C [38] of 0.14% and a viability, T/C [39] of 0.26%. The viability, T/C [40] was 0.22%, the viability, T/C [41] was 0.29% and the viability, T/C [42] was 0.25%.
For `O=C(c1cc(Cc2n[nH]c(=O)c3ccccc23)ccc1F)N1CCN(C(=O)C2CC2)CC1` + CNC(=O)c1ccc(Nc2nc(OC3CCCC3)c3c(-c4ccc5nc(C)oc5c4)c[nH]c3n2)c(OC)c1, the IC50 [1] was > 10000 nM, the IC50 [2] was > 10000 nM and the IC50 [3] was > 10000 nM. For the same molecule, the IC50 [4] was 481 nM, the IC50 [5] was < 31.6 nM and the IC50 [6] was < 31.6 nM. For the same molecule, the viability, T/C [7] was 98.2%, the viability, T/C [8] was 108% and the viability, T/C [9] was 92.3%. For the same molecule, the viability, T/C [10] was 103%, the viability, T/C [11] was 92.5% and the viability, T/C [12] was 79.3%. It also gave a viability, T/C [13] of 65.4%, a viability, T/C [14] of 72.5% and a viability, T/C [15] of 65.4%. It also gave a viability, T/C [16] of 80.9%, a viability, T/C [17] of 82.8% and a viability, T/C [18] of 60.5%. The viability, T/C [19] was 78.9%, the viability, T/C [20] was 69.3% and the viability, T/C [21] was 76.3%. It also gave a viability, T/C [22] of 71%, a viability, T/C [23] of 70.3% and a viability, T/C [24] of 54.3%. The viability, T/C [25] was 59.7%, the viability, T/C [26] was 48.5% and the viability, T/C [27] was 48.9%. It also gave a viability, T/C [28] of 47.9%, a viability, T/C [29] of 42.8% and a viability, T/C [30] of 25.8%. The viability, T/C [31] was 47.8%, the viability, T/C [32] was 48.2% and the viability, T/C [33] was 47.9%. For the same molecule, the viability, T/C [34] was 45.2%, the viability, T/C [35] was 35.2% and the viability, T/C [36] was 20.2%. For the same molecule, the viability, T/C [37] was 50.6%, the viability, T/C [38] was 37% and the viability, T/C [39] was 38.6%. For the same molecule, the viability, T/C [40] was 43.1%, the viability, T/C [41] was 27.5% and the viability, T/C [42] was 15.6%.
